Where two headings read alike, the source gives them in different places.

The target of one assay is T1, PKB-PIF (Homo sapiens, UniProt P31751).
T1 construct: fusion partner; made in house
Briefly: Measurement of PKB kinase inhibitory activity (IC50), radiometric filter plate assay. The class given is biochemical. The source says: The inhibition of protein kinase B (PKB) activity by compounds can be determined essentially as described by Andjelkovic et al. (Mol. Cell. Biol. 19, 5061-5072 (1999)) but using a fusion protein described as PKB-PIF and described in full by Yang et al (Nature Structural Biology 9, 940-944 (2002)). The protein is purified and activated with PDK1 as described by Yang et al. The peptide AKTide-2T (H-A-R-K-R-E-R-T-Y-S-F-G-H-H-A-OH) obtained from Calbiochem (#123900) is used as a substrate. A final concentration of 0.6 nM enzyme is used in a buffer that includes 20 mM MOPS pH 7.2, 30 μM ATP/γ^33P-ATP and 25 μM substrate. Compounds are added in DMSO solution to a final DMSO concentration of 2.5%. The reaction is allowed to proceed for 20 minutes before addition of excess orthophosphoric acid to quench activity. The reaction mixture is transferred to a phosphocellulose filter plate where the peptide binds and the unused ATP is washed away. After washing, scintillant is added and the incorporated activity measured by scintillation counting.
The % inhibition of the PKB activity is calculated and plotted in order to determine the concentration of test compound required to inhibit 50% of the PKB activity (IC50).

In a further assay the target is T2, PKA catalytic domain (Homo sapiens, UniProt P17612).
T2 construct: using the PKA catalytic domain from Upstate Biotechnology (#14-440); purchased Upstate Biotechnology 14-440
Briefly: Measurement of PKA kinase inhibitory activity (IC50), radiometric filter plate assay. The class given is biochemical. As to conditions: 1 nM enzyme, 40 μM ATP, 20 minutes. The method, then:
Compounds of the invention can be tested for PK inhibitory activity using the PKA catalytic domain from Upstate Biotechnology (#14-440) and the 9 residue PKA specific peptide ([…]), also from Upstate Biotechnology (#12-257), as the substrate. A final concentration of 1 nM enzyme is used in a buffer that includes 20 mM MOPS pH 7.2, 40 μM ATP/γ^33P-ATP and […] substrate. Compounds are added in dimethylsulphoxide (DMSO) solution to a final DMSO concentration of 2.5%. The reaction is allowed to proceed for 20 minutes before addition of excess orthophosphoric acid to quench activity. Unincorporated γ^33P-ATP is then separated from phosphorylated proteins on a Millipore MAPH filter plate. The plates are washed, scintillant is added and the plates are then subjected to counting on a Packard Topcount.
The % inhibition of the PKA activity is calculated and plotted in order to determine the concentration of test compound required to inhibit 50% of the PKA activity (IC50).

[1] abbreviates: 0.6 nM enzyme, 30 μM ATP, 25 μM AKTide-2T substrate, 20 minutes, read-out: IC50 (PKB activity).

T1 sequence (P31751 with tags, fused parts or gaps limits assumed): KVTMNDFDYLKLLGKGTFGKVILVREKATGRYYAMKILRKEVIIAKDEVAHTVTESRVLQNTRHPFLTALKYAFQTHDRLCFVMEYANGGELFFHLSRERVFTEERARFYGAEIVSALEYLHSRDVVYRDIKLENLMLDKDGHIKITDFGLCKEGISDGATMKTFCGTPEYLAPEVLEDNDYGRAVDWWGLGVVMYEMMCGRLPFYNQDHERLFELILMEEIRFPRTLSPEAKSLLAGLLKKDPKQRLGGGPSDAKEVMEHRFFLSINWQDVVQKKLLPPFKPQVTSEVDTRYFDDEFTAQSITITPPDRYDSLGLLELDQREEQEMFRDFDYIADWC

In general, IC50 refers to the point on the concentration scale where inhibition reaches its midpoint. For `NC(c1ccc(Cl)cc1)C1CCN(c2ccnc3[nH]ccc23)CC1` (single isomer, unassigned) [Example 32, C-(4-Chlorophenyl)-C-[1-(1H-pyrrolo[2,3-b]pyridin-4-yl)piperidin-4-yl]methylamine], the IC50 on PKB-PIF (setting [1]) is less than 10 µM. On the same count and under the same terms, the result for `CNCCCNc1ncnc2[nH]cnc12` [Example 1, N-Methyl-N′-(9H-purin-6-yl)-propane-1,3-diamine] reads less than 10 µM. As to `CNCCCNc1ncnc2[nH]c(=O)[nH]c12` [Example 2, 6-(3-Methylamino-propylamino)-7,9-dihydro-purin-8-one], at PKB-PIF (setting [1]), the IC50 is less than 10 µM. On the same count and under the same terms, the result for `NC(CCNc1ncnc2[nH]cnc12)c1ccc(F)cc1` (centres unmarked) [Example 3, 1-(4-Fluorophenyl)-N^3-(9H-purin-6-yl)propane-1,3-diamine] reads less than 10 µM. On to `NC(CCNc1ncnc2[nH]c(=O)[nH]c12)c1ccc(F)cc1` (centres unmarked) [Example 4, 6-[3-Amino-3-(4-fluorophenyl)propylamino]-7,9-dihydropurin-8-one], for which the IC50 against PKA catalytic domain is less than 150 µM; on PKB-PIF (setting [1]) it was less than 10 µM.

For `NC(CCNc1ncnc2[nH]cnc12)c1ccc(Cl)cc1` (centres unmarked) [Example 5, 1-(4-Chlorophenyl)-N^3-(9H-purin-6-yl)propane-1,3-diamine], the IC50 against PKA catalytic domain and at PKB-PIF (setting [1]) was less than 10 µM throughout. Take `CNCc1ccc(-c2ncnc3[nH]cnc23)cc1` [Example 6, Methyl-(4-(9H-purin-6-yl)benzyl)amine]: the IC50 on PKA catalytic domain and at PKB-PIF (setting [1]) was less than 10 µM in each case. Regarding `CNCc1cccc(-c2ncnc3[nH]cnc23)c1` [Example 7, Methyl-(3-(9H-purin-6-yl)benzyl)amine], the IC50 against PKA catalytic domain and at PKB-PIF (setting [1]) was less than 10 µM each time. On to `N#CCc1ccc(-c2ncnc3[nH]cnc23)cc1` [Example 8, (4-(9H-purin-6-yl)phenyl)acetonitrile], for which, on PKB-PIF (setting [1]), the IC50 is less than 50 µM. The same measure, in the same setting: then `NCCc1ccc(-c2ncnc3[nH]cnc23)cc1` [Example 9, 2-(4-(9H-Purin-6-yl)phenyl)ethylamine], with less than 50 µM. In the case of `NCCc1cccc(-c2ncnc3[nH]cnc23)c1` [Example 10, 2-(3-(9H-purin-6-yl)phenyl)ethylamine], the IC50 against PKB-PIF was less than 10 µM.

Regarding `NC(=O)C1CCN(c2ncnc3[nH]cnc23)CC1` [Example 11, 1-(9H-Purin-6-yl)piperidine-4-carboxylic Acid Amide], the IC50 on PKB-PIF (setting [1]) is less than 50 µM. As to `NCC1CCN(c2ncnc3[nH]cnc23)CC1` [Example 12, C-[1-(9H-Purin-6-yl)piperidin-4-yl]methylamine], the IC50 at PKA catalytic domain and at PKB-PIF (setting [1]) was less than 10 µM in each case.

Regarding `NC(c1ccccc1)C1CCN(c2ncnc3[nH]c(=O)[nH]c23)CC1` (centres unmarked) [Example 13, 6-[4-(Aminophenylmethyl)piperidin-1-yl]-7,9-dihydropurin-8-one], the IC50 on PKB-PIF (setting [1]) was less than 10 µM. Take `NC(c1ccc(Cl)cc1)C1CCN(c2ncnc3[nH]c(=O)[nH]c23)CC1` (centres unmarked) [Example 14, 6-[4-(Amino(4-chlorophenyl)methyl)piperidin-1-yl]-7,9-dihydropurin-8-one]: the IC50 at PKA catalytic domain and on PKB-PIF (setting [1]) was less than 10 µM throughout. Take `NCC1CCN(c2ncnc3[nH]c(=O)[nH]c23)CC1` [Example 15, 6-(4-Aminomethylpiperidin-1-yl)-7,9-dihydropurin-8-one]: at PKB-PIF (setting [1]), the IC50 is less than 10 µM. For the molecule `NCCCOc1cccc(-c2ncnc3[nH]cnc23)c1` [Example 16, 3-[3-(9H-Purin-6-yl)-phenoxy]-propylamine], the IC50 on PKB-PIF (setting [1]) is less than 10 µM. Take `NCC1CCN(c2ncnc3[nH]ncc23)CC1` [Example 17, C-[1-(1H-Pyrazolo[3,4-d]pyrimidin-4-yl)-piperidin-4-yl]-methylamine]: the IC50 against PKA catalytic domain and at PKB-PIF (setting [1]) was less than 10 µM in each case. Take `NCC1CCN(c2ncnc3[nH]ccc23)CC1` [Example 18, C-[1-(7H-Pyrrolo[2,3-d]pyrimidin-4-yl)-piperidin-4-yl]-methylamine]: the IC50 against PKA catalytic domain and on PKB-PIF (setting [1]) was less than 10 µM each time. Regarding `NC(c1ccccc1)c1ccc(-c2ncnc3[nH]cnc23)cc1` (centres unmarked) [Example 19, C-Phenyl-C-[4-(9H-purin-6-yl)-phenyl]-methylamine], the IC50 at PKB-PIF (setting [1]) is less than 10 µM.

Turning to `NC(Cc1ccccc1)c1ccc(-c2ncnc3[nH]cnc23)cc1` (centres unmarked) [Example 20, 2-Phenyl-1-[4-(9H-purin-6-yl)-phenyl]-ethylamine], the IC50 on PKA catalytic domain and at PKB-PIF (setting [1]) was less than 10 µM each time. Take `NC(Cc1ccccc1)C1CCN(c2ncnc3[nH]c(=O)[nH]c23)CC1` (centres unmarked) [Example 21, 6-[4-(1-Amino-2-phenylethyl)piperidin-1-yl]-7,9-dihydropurin-8-one]: at PKB-PIF (setting [1]), the concentration for half-maximal inhibition (IC50) is less than 50 µM. On to `Clc1ccc(C2(c3ccc(-c4ncnc5[nH]cnc45)cc3)CCNCC2)cc1` [Example 22, 6-(4-[4-(4-Chlorophenyl)-piperidin-4-yl)-phenyl)-9H-purine], for which the IC50 on PKA catalytic domain and on PKB-PIF (setting [1]) was less than 10 µM in each case. As for `Clc1ccc(C2(c3ccc(-c4ncnc5[nH]ccc45)cc3)CCNCC2)cc1` [Example 23, 4-{4-[4-(4-Chloro-phenyl)-piperidin-4-yl]-phenyl}-7H-pyrrolo[2,3-d]pyrimidine], the IC50 on PKA catalytic domain and at PKB-PIF (setting [1]) was less than 10 µM in each case. On to `NC(c1ccccc1)C1CCN(c2ncnc3[nH]ccc23)CC1` (centres unmarked) [Example 24, C-Phenyl-C-[1-(7H-pyrrolo[2,3-d]pyrimidin-4-yl)-piperidin-4-yl]-methylamine], for which the IC50 at PKB-PIF (setting [1]) was less than 10 µM.

Consider `NC(c1ccc(Cl)cc1)C1CCN(c2ncnc3[nH]ccc23)CC1` (centres unmarked) [Example 25, C-4-Chlorophenyl-C-[1-(7H-pyrrolo[2,3-d]pyrimidin-4-yl)-piperidin-4-yl]-methylamine], for which the IC50 at PKA catalytic domain and at PKB-PIF (setting [1]) was less than 10 µM each time. As for `NC(c1ccc(Cl)cc1)C1CCN(c2ncnc3[nH]cnc23)CC1` (centres unmarked) [Example 26, C-(4-Chloro-phenyl)-C-[1-(9H-purin-6-yl)-piperidin-4-yl]-methylamine], at PKB-PIF (setting [1]), the IC50 is less than 10 µM. Same read-out and setting: then `Clc1ccc(C2(c3ccc(-c4ccnc5[nH]ccc45)cc3)CCNCC2)cc1` [Example 27, 4-{4-[4-(4-Chloro-phenyl)-piperidin-4-yl]-phenyl}-1H-pyrrolo[2,3-b]pyridine], with less than 10 µM; and `NC(c1ccc(Cl)cc1)c1ccc(-c2ncnc3[nH]cnc23)cc1` (centres unmarked) [Example 28, C-(4-Chloro-phenyl)-C-[4-(9H-purin-6-yl)-phenyl]-methylamine], with less than 10 µM. As to `NC(c1ccc(Cl)cc1)C1CCN(c2ccnc3[nH]ccc23)CC1` (centres unmarked) [Example 29, C-(4-Chlorophenyl)-C-[1-(1H-pyrrolo[2,3-b]pyridin-4-yl)piperidin-4-yl]methylamine], the IC50 on PKA catalytic domain and on PKB-PIF (setting [1]) was less than 10 µM each time. On to `CNCC(c1ccc(Cl)cc1)c1ccc(-c2ccnc3[nH]ccc23)cc1` (centres unmarked) [Example 30, {2-(4-Chloro-phenyl)-2-[4-(1H-pyrrolo[2,3-b]pyridin-4-yl)-phenyl]-ethyl}-methyl-amine], for which the IC50 against PKA catalytic domain and at PKB-PIF (setting [1]) was less than 10 µM throughout. As to `NCC1CCCN(c2ncnc3[nH]ccc23)C1` (centres unmarked) [Example 31, C-[1-(7H-Pyrrolo[2,3-d]pyrimidin-4-yl)piperidin-3-yl]methylamine], the IC50 on PKA catalytic domain and at PKB-PIF (setting [1]) was less than 10 µM in each case.

The values above are taken from patent US20090099213A1, “Ortho-Condensed Pyridine and Pyrimidine Derivatives (e.g., Purines) as Protein Kinases Inhibitors” (Astex Therapeutics Limited, priority 2004, published 2009).
